Experimental data: patent US20190192060A1, “DEVICE AND METHOD FOR BLOOD VOLUME MEASUREMENT” (Oregon Health & Science University, priority 2017, published 2019)

Key:
[1] = in vivo indicator dilution and elimination measured with intravenous optical fiber probe; conditions: healthy adult rhesus macaques, intravenous injection, reflectance in cephalic vein
[2] = cited from earlier work
[3] = cited from earlier work; remark: listed apart in the source

For `CC1(C)C(/C=C/C=C/C=C/C=C2\N(CCCCS(=O)(=O)O)c3ccc4ccccc4c3C2(C)C)=[N+](CCCCS(=O)(=O)[O-])c2ccc3ccccc3c21` [ICG, indocyanine green], the “time until blood volume indicator values returned to baseline (non-detectable)” value [1] is listed as “approximately 10 minutes”, the placental transfer ([2]; in vivo) is listed as “does not cross the placenta” and the “harm to the fetus” value ([2]; used in many pregnant women) is listed as “without any reports of harm to the fetus”. The “time to elimination by the liver” value ([3]; after mixing in the circulating compartment) was ≤ 15 min and the route of excretion ([3]; in vivo) was “excreted unchanged in the bile”.
